# Results taken from patent US20240117005A1, “NOVEL BICYCLIC PEPTIDES” (THE COUNCIL OF THE QUEENSLAND INSTITUTE OF MEDICAL RESEARCH, priority 2021, published 2024).
# Key:
# [1] = system: MCF-7 cells; experiment: RNA-seq differential expression, DL-2 vs. Stimulated; type: cell-based, human; settings: MCF-7, DL-2 vs. Stimulated (PMA)
# From the text: RNA-sequencing (RNA seq) data were obtained from human breast cancer cell line MCF-7 with and without DL-2 treatment. A total of 9 samples from […] experimental groups were collected, as follows: • Control (non-stimulated control, Ctrl) (n=3); • Stimulated (PMA stimulated control) (n=3); • DL-2 (treated with DL-2 and stimulated with PMA) (n=3); For the DL-2 treatment group, the MCF-7 cells were exposed to DL-2 first, then stimulated with PMA thereafter. RNA-seq data were generated, fastq data were downloaded to the QIMR Berghofer server, and then archived to the HSM by Scott Wood. Sequence reads were trimmed for adapter sequences using Cutadapt (version 1.9; Martin (2011)) and aligned using STAR (version 2.5.2a; Dobin et al. (2013)) to the GRCh37 assembly with the gene, transcript, and exon features of Ensembl (release 70) gene model. Quality control metrics were computed using RNA-SeQC (version 1.1.8; DeLuca et al. (2012)) and expression was estimated using RSEM (version 1.2.30; Li and Dewey (2011)). In our analysis, we corrected for library size by dividing each sample's gene count by million reads mapped. This procedure is a common approach known as counts per million (CPM). We further corrected for differences in RNA composition using a method proposed by Robinson and Oshlack (2010a) called trimmed mean of M values (TMM). We used the function calcNormFactors( ) from the edgeR package (Robinson, McCarthy, and Smyth (2010b)) to obtain TMM factors and used these to correct for differences in RNA composition. Differential expression (DE) analysis was performed using the R package edgeR (Robinson, McCarthy, and Smyth (2010b)). Note that the inputs for DE analysis are the filtered but not normalised read counts, since edgeR performs normalisation (library size and RNA composition) internally. The […]( ) function was used to fit a quasi-likelihood negative binomial generalised log-linear model to the read counts for each gene. Using the […]( ) function, we conducted gene-wise empirical Bayes quasi-likelihood F-tests for a given contrast. As per the edgeR user's guide, “the quasi-likelihood method is highly recommended for differential expression analyses of bulk RNA-seq data [versus the likelihood ratio test] as it gives stricter error rate control by accounting for the uncertainty in dispersion estimation”.
# [2] = system: PDL2; experiment: Immunofluorescence microscopy of nuclear PDL2; type: cell-based, human; settings: MDA-MB-231 breast cancer cell line
# Description: The cells were fixed and immunofluorescence microscopy was performed. Digital images were analysed using ImageJ software (ImageJ, NIH, Bethesda, MD, USA) to determine the mean nuclear fluorescent intensity (TNFI) in cells measured using ImageJ to select the nucleus minus background (n=>500 cells/sample).
smiles,measurement,setting,value
CCCCCCCCCCCCCC(=O)NC(C)C(=O)NC1CSCc2cc3cc(c2)CSC[C@H](NC(=O)[C@H](Cc2ccccc2)NC(=O)[C@H](C(C)CC)NC(=O)[C@H](Cc2ccccc2)NC(=O)[C@H]([C@@H](C)O)NC(=O)C(CC(C)C)NC1=O)C(=O)N[C@@H](CCCNC(C)=N)C(=O)N[C@@H](CC(C)C)C(=O)N[C@@H](CCCNC(=N)N)C(=O)N[C@@H](CCCCN)C(=O)NCC(=O)N[C@@H](CCCNC(=N)N)C(=O)NC(C(=O)N[C@@H](CCSC)C(=O)NC(CCSC)C(=O)N[C@@H](CC(=O)O)C(=O)NC(C(=O)N[C@@H](CCCCN)C(=O)NC(CCCCN)C(=O)O)C(C)C)CSC3 (mixture of isomers) [DL-2],logFC A2M,[1],1.461
same,logFC AKR1C1,[1],−1.324
same,logFC ALDH1A3,[1],−0.9248
same,logFC ATP6V0B,[1],0.647
same,logFC B3GAT3,[1],0.8186
same,logFC BSCL2,[1],0.9849
same,logFC C19orf10,[1],0.7917
same,logFC CAMSAP2,[1],−0.7468
same,logFC CD99,[1],0.6829
same,logFC CDKN2B,[1],−0.5982
same,logFC CHPF,[1],0.6073
same,logFC CTNNAL1,[1],−0.5943
same,logFC CTSD,[1],1.079
same,logFC CXCL12,[1],1.155
same,logFC ELF1,[1],−0.7207
same,logFC ENTPD1,[1],0.8956
same,logFC ETV3,[1],−0.6424
same,logFC FILIP1L,[1],−0.7563
same,logFC FOXN3,[1],−0.75
same,logFC IFIT2,[1],−1.213
same,logFC IGFBP2,[1],0.7385
same,logFC IGFBP4,[1],0.6164
same,logFC INPP4B,[1],−0.6381
same,logFC KIAA1324,[1],0.6324
same,logFC KLHL5,[1],−1.028
same,logFC MANF,[1],0.8172
same,logFC MMP9,[1],−1.43
same,logFC MOB1A,[1],−0.6723
same,logFC MUC1,[1],0.9921
same,logFC NEDD9,[1],−0.7516
same,logFC NEU1,[1],0.6165
same,logFC PPIB,[1],0.8358
same,logFC PRDX4,[1],0.6511
same,logFC QKI,[1],−0.8595
same,logFC RAI14,[1],−0.8091
same,logFC SERPINA3,[1],1.008
same,logFC SGCG,[1],1.126
same,logFC SIRT1,[1],−0.7444
same,logFC SLC7A11,[1],−0.8545
same,logFC STC1,[1],0.7265
same,logFC TACC1,[1],−0.6077
same,logFC TAPBP,[1],0.5968
same,logFC TBC1D5,[1],−0.897
same,logFC TCN1,[1],2.029
same,logFC TFF1,[1],1.253
same,logFC TMED3,[1],0.6673
same,logFC TXNRD1,[1],−0.7667
same,logFC ZMYND11,[1],−2.883
same,logFC ZNF267,[1],−0.6577
same,nuclear expression of PDL2,[2],no effect at all
